Values of other authors as cited in US20160001001A1 (priority 2013, published 2016).

Details: in vivo

CN1CC[C@]23c4c5ccc(O)c4O[C@H]2[C@@H](O)C=C[C@H]3[C@H]1C5 [Morphine]
Onset time: 8 min | Time elapsing until the maximum analgesic effect is reached: 25 min
